# Patent US20190223483A1, “SENSORY MODIFIER COMPOUNDS” (CARGILL, INCORPORATED, priority 2017, published 2019)
# What was measured:
# Type in all cases: in vivo
# [1] = Roundtable assessment of spikey/rounded sweetness quality (scale 0 to 3); set-up: key: 0=none; 1=mostly spikey, some rounded; 2=mostly rounded, some spikey; 3=rounded
# Experimental: (§1) For other sweetness attributes, the solutions were tested by a panel of at least four individuals that are highly-trained in tasting steviol glycoside solutions. The highly-trained panelists used a roundtable methodology to assess each sweetness attribute. To test each solution, the highly-trained panelists dispensed approximately 2 mL of each solution into their own mouths by transfer pipet, dispersed the solution by moving their tongues, and recorded a value for the particular sweetness attribute being tested. Between tasting solutions, the panelists were able to cleanse their palates with water. For each sweetness attribute, the panelist agreed on a descriptive scale with relative intensities assigned for each sweetness attribute and then recorded the values for each sweetness attribute against this. For example, this roundtable assessment of sweetness linger assigned a scale of 0 to 6 with a score of 0 indicating no sweetness linger and a score of 6 indicating extreme sweetness linger. Roundtable assessment of sweetness linger assigned a scale of 0 to 6 with a score of 0 indicating no sweetness linger and a score of 6 indicating extreme sweetness linger (0=none, 1=trace, 2=slight, 3=moderate, 4=definite, 5=strong, 6=extreme). Roundtable assessment of rounded assigned a scale of 0 to 3 with a score of 0 indicating spikey and a score of 3 indicating desirable rounded (0=none, 1=mostly spikey, some rounded, 2=mostly rounded, some spikey, 3=rounded). Roundtable assessment of mouthfeel assigned a scale of 0 to 2 with a score of 0 indicating water and a score of 2 indicating syrupy (0=water, 1=sucrosey, 2=syrupy). Roundtable assessment of bitterness assigned a scale of 0 to 6 with a score of 0 indicating no bitterness and a score of 6 indicating extreme sweetness linger (0=none, 1=trace, 2=slight, 3=moderate, 4=definite, 5=strong, 6=extreme). Roundtable assessment of off tastes assigned a scale of 0 to 6 with a score of 0 indicating no bitterness and a score of 6 indicating extreme off tastes (0=none, 1=trace, 2=slight, 3=moderate, 4=definite, 5=strong, 6=extreme).
# A series of assays were carried out to characterize a sweetness quality of a not preferred spikey quality (a zero value) to a more desirable rounded quality (a 3 value) of steviol glycoside compositions with sensory modifier compound using the roundtable methodology described in Example 1. Rounded quality has the sensory experience of being more like sucrose. […] Solutions of steviol glycosides and sensory modifier compound were prepared at increasing ratios of sensory modifier to steviol glycoside by weight. The steviol glycosides were RebA (4 glycoside groups), RebD (5 glycoside groups), RebM (6 glycoside groups), and OPS1-5(7 glycoside groups) and the sensory modifier compound was monocaffeoylquinic and dicaffeoylquinic acids prepared from yerba mate. […] The solutions were tested for spikey/rounded.
# [2] = Roundtable assessment of bitterness (scale 0 to 6); set-up: key: 0 = none; 1 = trace/faint; 2 = slight; 3 = moderate; 4 = definite; 5 = strong; 6 = extreme
# Experimental: as §1
# (§2) A series of assays were carried out to characterize bitterness (0=none, 1=trace/faint, 2=slight, 3=moderate, 4=definite, 5=strong, 6=extreme) of steviol glycoside compositions with sensory modifier compound using the roundtable methodology described in Example 1. […] Solutions of steviol glycosides and sensory modifier compound were prepared at increasing ratios of sensory modifier to steviol glycoside by weight. The steviol glycosides were RebA (4 glycoside groups), RebD (5 glycoside groups), RebM (6 glycoside groups), and OPS1-5(7 glycoside groups) and the sensory modifier compound was monocaffeoylquinic and dicaffeoylquinic acids prepared from yerba mate. The concentration of steviol glycosides was 700 ppm in each solution. The solutions were tested for bitterness.
# [3] = Roundtable assessment of off taste (scale 0 to 6); set-up: key to Off taste / off taste score: 0 = none; 1 = trace/faint; 2 = slight; 3 = moderate; 4 = definite; 5 = strong; 6 = extreme
# Experimental: as §1
# as §2, with “off taste” for “bitterness”, “off taste. Off taste included astringency, metallic, powdery, numbing, and vapory attributes.” for “bitterness.”
# [4] = Roundtable assessment of astringency; set-up: key: 0 = none; 1 = trace/faint; 2 = slight; 3 = moderate; 4 = definite; 5 = strong; 6 = extreme
# Experimental: Roundtable assessment of botanical notes assigned a scale of 0 to 5 with a score of 0 indicating no botanical notes and a score of 5 indicating strong (0=none, 1=trace, 2=slight, 3=moderate, 4=definite, 5=strong).
# Solutions of steviol glycosides and sensory modifier compound were prepared at increasing ratios of sensory modifier to steviol glycoside by weight. […] The concentration of steviol glycosides was 700 ppm in each solution. The solutions were tested for astringency.
# [5] = steviol glycoside 700 ppm + yerba mate mono/dicaffeoylquinic acids 630 ppm
# [6] = steviol glycoside 700 ppm + yerba mate mono/dicaffeoylquinic acids 946 ppm
# [7] = steviol glycoside 700 ppm + yerba mate mono/dicaffeoylquinic acids […]
# [8] = steviol glycoside 700 ppm, sensory modifier 0 ppm
# [9] = RebA 700 ppm, higher concentrations of sensory modifier
smiles,measurement,setting,value
"C=C1C[C@@]23CC[C@H]4[C@@](C)(CCC[C@@]4(C)C(=O)O[C@@H]4O[C@H](CO)[C@@H](O)[C@H](O)[C@H]4O)[C@@H]2CC[C@]1(O[C@@H]1O[C@H](CO)[C@@H](O)[C@H](O[C@@H]2O[C@H](CO)[C@@H](O)[C@H](O)[C@H]2O)[C@H]1O[C@@H]1O[C@H](CO)[C@@H](O)[C@H](O)[C@H]1O)C3 [RebA, Rebaudioside A]",Spikey/rounded (spikey = 0) (rounded = 3),[1]; [5],Not observed
same,Spikey/rounded (spikey = 0) (rounded = 3),[1]; [6],Not observed
same,Spikey/rounded (spikey = 0) (rounded = 3),[1]; [7],Not observed
same,Spikey/rounded (spikey = 0) (rounded = 3),[1]; [8],0
same,bitterness score,[2]; [9],3
same,Bitterness,[2]; [5],3
same,Bitterness,[2]; [6],3
same,Bitterness,[2]; [7],5
same,Bitterness,[2]; [8],6
same,off taste score,[3]; [9],2
same,Off taste,[3]; [5],2
same,Off taste,[3]; [6],2
same,Off taste,[3]; [7],2
same,Off taste,[3]; [8],6
same,Astringency,[4]; [5],1
same,Astringency,[4]; [6],3
same,Astringency,[4]; [7],Not observed
same,Astringency,[4]; [8],Not observed
